Patent US20130012531A1, “TREATMENT METHOD” (priority 2010, published 2013)
Read-outs that look alike come from different tables or passages of the source.

How the values were obtained:
[1] = Plasma and ocular tissue drug concentration after topical eye drops; type: in vivo, Norway Brown rats; details: for concentration at 5 hours after third drop: female, Norway Brown, rat, topical, 30 μl (5 mg/ml) per drop, three drops over 24 hours, 30 μl drops to left eye only, three times over 24 hours
Experimental: Female Norway Brown rats were used during these studies. Rats were purchased from Charles River (Portage, Mich.). […]
Rats were euthanized by CO2 inhalation before enucleation and collection of plasma samples. Samples were frozen immediately over dry ice after collection and then stored at −80° C. The ocular tissues were processed through a dissection-pulverization-drug extraction process. Frozen eye sectioning was performed by the following steps. The preparation of rat eye cups was done by removing the anterior portion of the eye with a razor blade followed by removal of the lens and frozen vitreous with forceps. A sagittal section was made in the eye cup before collection of the retina/choroid tissue by scraping the exposed sclera with the round end of a spatula until the pigmented tissue was completely removed from the scleral tissue. The collected tissues were pulverized under liquid nitrogen. Frozen tissue was carefully placed in a liquid nitrogen primed BioPulverizer (Biospec Products Inc, Bartlesville, Okla.). Following pulverization the tissue powder was removed from the pulverizer and transferred into a polypropylene tube. Extraction buffer (50% methanol/50% 0.5 M HCl) was added to tissue powder followed by two cycles of sonication, centrifugation, and supernatant collection. Tissue homogenate supernatant was pooled and frozen on dry ice then stored at −80° C. until drug analysis. The extraction efficacy of this methodology was assumed to be 100% for calculation purposes.
Plasma samples and eye tissue extracts were analyzed for pazopanib using a validated analytical method based on protein precipitation, followed by HPLC/MS/MS analysis, Using 50 μl aliquot of plasma and eye tissue extract, the lower limit of quantification of pazopanib was 1 ng/ml for plasma and 10 ng/ml for eye tissue extract. The higher limit of quantification was 500 ng/ml for plasma and 5000 ng/ml for eye tissue extracts. The computer systems that were used on these studies to acquire and quantify data included Analyst Version 1.4,1 and SMS2000 Version 1.6. Plasma sample concentrations were expressed as ng pazopanib/ml. Tissue concentrations were determined by the following formula: Pazopanib ng/g tissue=([concentration in supernatant ng/ml*extract volume ml]/tissue weight g).

CNV lesions = test: Histology (HE) of CNV lesion area on post-laser day 14; type: in vivo, Brown Norway rats
Experimental: (§1) Male Brown Norway rats (10-12 weeks of age, […] weighing 170 to 360 g) were used throughout this study. The animals were treated according to ARVO Statement on the use of animals in ophthalmic and vision research, and all animal experiments were reviewed and approved by municipal and University Hospital animal care committees in Leipzig. The rats were anesthetized with intraperitoneal ketamine (100 mg/kg; Ratiopharm, Ulm, Germany) and xylazine (BayerVital, Leverkusen, Germany; 10 mg/kg). Topical application of tropicamide (5 mg/ml) and phenylephrine hydrochloride (Ankerpharm, Rudolstadt, Germany; 50 mg/ml) were instilled for mydriasis during laser photocoagulation and fluorescein angiography. Fourteen days after laser injury, rats were humanely euthanized using overdoses of carbon dioxide.
(§2) Animals were treated using laser photocoagulation-induced rupture of Bruch's membrane using a 545 nm dye laser (Coherent Argon Dye Laser #920, Coherent Medical Laser, Palo Alto, Calif.) attached to a slit lamp (Carl Zeiss, Oberkochen, Germany). A contact lens was used to retain corneal clarity through photocoagulation. The laser spots were placed separately using the following settings; 50-μm diameter, 0.1 second duration, and 180-mW intensity. To rupture Bruch's membrane, four to seven laser spots were applied between the major retinal vessels close to the optic disc. Pazopanib (approximately 30 μl of a 5 mg/ml sterile-filtered solution) was administered twice daily. Animals of the control group received a vehicle only.
After the rats were euthanized on day 14, eyes were immediately dissected and fixed with 4% paraformaldehyde (dissolved in PBS). […] Three to five serial sections from each CNV membrane were measured, and the highest value (representing the top of a given CNV complex) was stored. Digitized images were analyzed and measured with the concomitant image-analysis software (Axiovision; Carl Zeiss). Each lesion was encircled manually, and their area (in μm^2) was calculated by the program.

[2] = test system: experimental CNV (choroidal neovascularization) leakage; test: Fluorescence angiography in experimental laser-induced CNV; type: in vivo, Brown Norway rats
Experimental: as §1, §2
Aiming to document treatment of CNV in its early stage, a treatment schedule was used as follows. Laser photocoagulation was carried out as described above, and pazopanib was applied twice a day topically from post laser day 6 until study end on post laser day 14. Coagulated lesions were first documented by angiography on day 7 post laser, and only rats with ocular CNV were included in the analysis. Sodium fluorescein was injected into tail vein of the anesthetized rats and fluorescein angiograms were obtained by means of a fundus camera (FD-31A, Topcon, Tokyo, Japan). On day 14, rats underwent a second angiography. Angiograms taken 100 to 140 seconds after injection were converted to digital images, and areas of fluorescein leakage with intensity as high as in major vessels were quantified in a masked fashion BY two of us (YY; XMY) using a computer software (NIH image, Research Service Branch, Bethesda, Md.). Differences in fluorescence were calculated by the following formula:
Area of fluorescein leakage on day 14×100%/area of fluorescein leakage on day 7.

[3] = Ocular tissue distribution and systemic concentrations of radioactivity after topical ocular administration; type: in vivo, Dutch belted (pigmented) rabbits
Experimental: The ocular tissue distribution and systemic concentrations of radioactivity were assessed following topical ocular administration of pazopanib to Dutch belted (pigmented) rabbits. A single 60-μL at a target dose of 0.3 mg/dose (30 μCi/dose) was administered to the right eye. Blood and ocular tissues from both the dosed and non-dosed (left) eye were collected from one animal at each of eight sampling times up to 24 h, and analyzed for total radioactivity.

[4] = single 60-μL topical dose 0.3 mg
[5] = single 60-μL topical dose 0.3 mg, 2 h

concentration at 5 hours after third drop ([1]; eye cup tissues of the fellow non-treated eye (OD), read-out: pazopanib in eye cup tissues, fellow non-treated eye (OD), mean): 159 ng/g
concentration at 5 hours after third drop ([1]; read-out: pazopanib in eye cup tissues (sclera, choroid, retina), treated eye (OS), mean): 503 ng/g
plasma level after 24 hours ([1]; single 30 μl eye drop): undetectable
time of peak plasma level ([1]; single 30 μl eye drop): 60 min
peak plasma level ([1]; single 30 μl eye drop (5 mg/ml)): ~300 ng/mL
time of choroid peak level [3, 4]: 8 h
time of highest concentration in blood [3, 4]: 1 h
time of highest concentration in plasma [3, 4]: 2 h
time of retina peak level [3, 4]: 4 h
highest concentration of radioactivity in blood ([3]; single 60-μL topical dose 0.3 mg to right eye, at 1 h): 11.3 ng eq/g
highest concentration of radioactivity in plasma ([3]; single 60-μL topical dose 0.3 mg to right eye, at 2 h): 12,8 ng eq/g
choroid level of radioactivity at 2 h [3, 5]: 40.6 ng eq/g
retina level of radioactivity at 2 h [3, 5]: 9.17 ng eq/g
retina peak level of radioactivity ([3]; single 60-μL topical dose 0.3 mg, at 4 h): 10.2 ng eq/g
choroid peak level of radioactivity ([3]; single 60-μL topical dose 0.3 mg, at 8 h): 60.1 ng eq/g
Structure (SMILES): Cc1ccc(Nc2nccc(N(C)c3ccc4c(C)n(C)nc4c3)n2)cc1S(N)(=O)=O [pazopanib, 5-[[4-[(2,3-dimethyl-2H-indazol-6-yl)methylamino]-2-pyrimidinyl]amino]-2-methylbenzenesulfonamide]
CNV lesion area (CNV lesions; eyes treated topically with pazopanib, day 14 after laser): 7,760.3±2,312.0 μm^2
inhibition in lesion size (CNV lesions; lasered eyes from rats treated topically in the fellow eye): ~34%
inhibition in lesion size compared to vehicle control (CNV lesions; topically treated eyes, day 14): 71.7%
Area of fluorescein leakage on day 14 x 100% / area on day 7 ([2]; lesioned eyes whose fellow (contralateral) eye was pazopanib-treated, % of baseline day 7): 115.24±16.72%
development of CNV lesions (vessel leakage, fluorescence angiography) ([2]; topically administered, post laser days 7 to 14, versus vehicle): significantly reduced
Area of fluorescein leakage on day 14 x 100% / area on day 7 ([2]; topically treated eyes, twice daily 5 mg/ml eye drops, post laser day 6-14, mean±SD, baseline 100% at day 7): 111.41±21.34%
inhibition of further lesion development ([2]; twice-daily topical administration, versus vehicle control eyes): > 89%
